The numbers were not newly measured in PubChem BioAssay AID1259409 (Chemical Carcinogenesis Research Information System (CCRIS), 2018), which cites them from elsewhere.

This data set deals with rodent chemically induced tumor inhibition, incidence and multiplicity. In words: CCRIS tumor inhibitor studies. Conditions: Carcinogen: N-BUTYL-N-(4-HYDROXYBUTYL)NITROSAMINE [3817-11-6], Route [Inhibitor]: INTRAGASTRIC, Species: MOUSE, Strain/Sex: C57BL/6/FEMALE, Promoter: NONE.

Take `CN1CCN(c2c(F)cc3c(=O)c(C(=O)O)cn(CCF)c3c2F)CC1`: the outcome is 1, 0, not significant (Dose [Inhibitor]: 10 MG ONCE/D FOR 1 WK BEGINNING 1 WK PRIOR TO FIRST CARCINOGEN DOSE (STUDY DURATION: 13 WK), Target Tissue: Type of Lesion: URINARY BLADDER: CARCINOMA IN SITU, Dose [Carcinogen]: 0.05% IN DRINKING WATER FOR 8 WK BEGINNING IMMEDIATELY POST LAST INHIBITOR DOSE (STUDY DURATION: 13 WK)); 0, 0, not significant (Dose [Inhibitor]: 10 MG ONCE/D FOR 1 WK BEGINNING 1 WK PRIOR TO FIRST CARCINOGEN DOSE (STUDY DURATION: 13 WK), Target Tissue: Type of Lesion: URINARY BLADDER: INVASIVE CARCINOMA, Dose [Carcinogen]: 0.05% IN DRINKING WATER FOR 8 WK BEGINNING IMMEDIATELY POST LAST INHIBITOR DOSE (STUDY DURATION: 13 WK)); 1, 0, not significant (Dose [Inhibitor]: 10 MG ONCE/D FOR 1 WK BEGINNING 1 WK PRIOR TO FIRST CARCINOGEN DOSE (STUDY DURATION: 17 WK), Target Tissue: Type of Lesion: URINARY BLADDER: CARCINOMA IN SITU, Dose [Carcinogen]: 0.05% IN DRINKING WATER FOR 8 WK BEGINNING IMMEDIATELY POST LAST INHIBITOR DOSE (STUDY DURATION: 17 WK)); 1, 0, not significant (Dose [Inhibitor]: 10 MG ONCE/D FOR 1 WK BEGINNING 1 WK PRIOR TO FIRST CARCINOGEN DOSE (STUDY DURATION: 17 WK), Target Tissue: Type of Lesion: URINARY BLADDER: INVASIVE CARCINOMA, Dose [Carcinogen]: 0.05% IN DRINKING WATER FOR 8 WK BEGINNING IMMEDIATELY POST LAST INHIBITOR DOSE (STUDY DURATION: 17 WK)); 0, 1, not significant (Dose [Inhibitor]: 10 MG ONCE/D FOR 1 WK BEGINNING 1 WK PRIOR TO FIRST CARCINOGEN DOSE (STUDY DURATION: 21 WK), Target Tissue: Type of Lesion: URINARY BLADDER: CARCINOMA IN SITU, Dose [Carcinogen]: 0.05% IN DRINKING WATER FOR 12 WK BEGINNING IMMEDIATELY POST LAST INHIBITOR DOSE (STUDY DURATION: 21 WK)); 9, 6, not significant (Dose [Inhibitor]: 10 MG ONCE/D FOR 1 WK BEGINNING 1 WK PRIOR TO FIRST CARCINOGEN DOSE (STUDY DURATION: 21 WK), Target Tissue: Type of Lesion: URINARY BLADDER: INVASIVE CARCINOMA, Dose [Carcinogen]: 0.05% IN DRINKING WATER FOR 12 WK BEGINNING IMMEDIATELY POST LAST INHIBITOR DOSE (STUDY DURATION: 21 WK)). Besides, the outcome is on record as 1, 0, not significant (Dose [Inhibitor]: 50 MG ONCE/D FOR 1 WK BEGINNING 1 WK PRIOR TO FIRST CARCINOGEN DOSE (STUDY DURATION: 13 WK), Target Tissue: Type of Lesion: URINARY BLADDER: CARCINOMA IN SITU, Dose [Carcinogen]: 0.05% IN DRINKING WATER FOR 8 WK BEGINNING IMMEDIATELY POST LAST INHIBITOR DOSE (STUDY DURATION: 13 WK)); 0, 0, not significant (Dose [Inhibitor]: 50 MG ONCE/D FOR 1 WK BEGINNING 1 WK PRIOR TO FIRST CARCINOGEN DOSE (STUDY DURATION: 13 WK), Target Tissue: Type of Lesion: URINARY BLADDER: INVASIVE CARCINOMA, Dose [Carcinogen]: 0.05% IN DRINKING WATER FOR 8 WK BEGINNING IMMEDIATELY POST LAST INHIBITOR DOSE (STUDY DURATION: 13 WK)); 1, 0, not significant (Dose [Inhibitor]: 50 MG ONCE/D FOR 1 WK BEGINNING 1 WK PRIOR TO FIRST CARCINOGEN DOSE (STUDY DURATION: 17 WK), Target Tissue: Type of Lesion: URINARY BLADDER: CARCINOMA IN SITU, Dose [Carcinogen]: 0.05% IN DRINKING WATER FOR 8 WK BEGINNING IMMEDIATELY POST LAST INHIBITOR DOSE (STUDY DURATION: 17 WK)); 1, 0, not significant (Dose [Inhibitor]: 50 MG ONCE/D FOR 1 WK BEGINNING 1 WK PRIOR TO FIRST CARCINOGEN DOSE (STUDY DURATION: 17 WK), Target Tissue: Type of Lesion: URINARY BLADDER: INVASIVE CARCINOMA, Dose [Carcinogen]: 0.05% IN DRINKING WATER FOR 8 WK BEGINNING IMMEDIATELY POST LAST INHIBITOR DOSE (STUDY DURATION: 17 WK)); 0, 2, not significant (Dose [Inhibitor]: 50 MG ONCE/D FOR 1 WK BEGINNING 1 WK PRIOR TO FIRST CARCINOGEN DOSE (STUDY DURATION: 21 WK), Target Tissue: Type of Lesion: URINARY BLADDER: CARCINOMA IN SITU, Dose [Carcinogen]: 0.05% IN DRINKING WATER FOR 12 WK BEGINNING IMMEDIATELY POST LAST INHIBITOR DOSE (STUDY DURATION: 21 WK)); 9, 5, not significant (Dose [Inhibitor]: 50 MG ONCE/D FOR 1 WK BEGINNING 1 WK PRIOR TO FIRST CARCINOGEN DOSE (STUDY DURATION: 21 WK), Target Tissue: Type of Lesion: URINARY BLADDER: INVASIVE CARCINOMA, Dose [Carcinogen]: 0.05% IN DRINKING WATER FOR 12 WK BEGINNING IMMEDIATELY POST LAST INHIBITOR DOSE (STUDY DURATION: 21 WK)).
